Experimental findings from ChEMBL document CHEMBL4346735, “Discovery and pharmacological evaluation of indole derivatives as potent and selective RORγt inverse agonist for multiple autoimmune conditions” (Bioorg Med Chem Lett, 2019) are described below.

pIC50: −log10 of the molar value. ≈ marks a conversion by molar mass, not a printed value. Where only a bound is given, the exact number is not on record here.

Data set [1] can be described thus: Metabolic stability in mouse liver microsomes assessed as parent compound remaining at 1 uM preincubated for 5 mins followed by NADPH addition after 30 mins by LC-MS/MS analysis. Type of data set: ADME, Microsome. The conditions noted are these: read-out: Stability.
The nature of data set [2]: Metabolic stability in human liver microsomes assessed as parent compound remaining at 1 uM preincubated for 5 mins followed by NADPH addition after 30 mins by LC-MS/MS analysis. The data set is classed as ADME, Microsome. Conditions: read-out: Stability.
The target in data set [3] is T1, Nuclear receptor ROR-gamma (Homo sapiens, UniProt P51449).
T1 sequence (P51449 whole entry): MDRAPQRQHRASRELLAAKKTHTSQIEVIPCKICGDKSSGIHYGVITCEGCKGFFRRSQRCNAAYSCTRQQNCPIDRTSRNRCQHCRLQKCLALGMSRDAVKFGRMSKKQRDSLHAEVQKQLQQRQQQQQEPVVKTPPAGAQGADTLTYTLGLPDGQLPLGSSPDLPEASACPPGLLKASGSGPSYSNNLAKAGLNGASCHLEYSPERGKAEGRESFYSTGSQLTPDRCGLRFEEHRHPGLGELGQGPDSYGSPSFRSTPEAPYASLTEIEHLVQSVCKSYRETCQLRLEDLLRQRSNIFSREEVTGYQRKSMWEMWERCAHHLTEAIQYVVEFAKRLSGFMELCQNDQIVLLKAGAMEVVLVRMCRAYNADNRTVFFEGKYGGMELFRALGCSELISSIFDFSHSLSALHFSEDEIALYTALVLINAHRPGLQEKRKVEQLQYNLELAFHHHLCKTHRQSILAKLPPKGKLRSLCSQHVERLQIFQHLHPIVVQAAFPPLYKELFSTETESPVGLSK
The data set is described as follows: Transactivation of recombinant GAL4-DBD fused RORgammat LBD (unknown origin) expressed in HEK293T cells incubated for 18 to 24 hrs by dual-Glo luciferase assay. The data set is classed as cell-based.

Data set [4] can be described thus: Metabolic stability in rat liver microsomes assessed as parent compound remaining at 1 uM preincubated for 5 mins followed by NADPH addition after 30 mins by LC-MS/MS analysis. The conditions noted are these: read-out: Stability. The data set is classed as ADME, Microsome.
Data set [5] has as its target T1, Nuclear receptor ROR-gamma. The data set is described as follows: Inverse agonist activity at GST-tagged RORgammat LBD (unknown origin) using fluorescein-D22 co-activator peptide as substrate incubated for 1 hr by TR-FRET assay.
For the next data set, the target named is Cytochrome P450 3A4 (Homo sapiens, UniProt P08684). In words: Inhibition of CYP3A4 in human liver microsomes using testosterone as substrate preincubated for 5 mins followed by NADPH addition measured after 10 mins by LC-MS/MS analysis.
Chain of Cytochrome P450 3A4 (P08684 whole entry): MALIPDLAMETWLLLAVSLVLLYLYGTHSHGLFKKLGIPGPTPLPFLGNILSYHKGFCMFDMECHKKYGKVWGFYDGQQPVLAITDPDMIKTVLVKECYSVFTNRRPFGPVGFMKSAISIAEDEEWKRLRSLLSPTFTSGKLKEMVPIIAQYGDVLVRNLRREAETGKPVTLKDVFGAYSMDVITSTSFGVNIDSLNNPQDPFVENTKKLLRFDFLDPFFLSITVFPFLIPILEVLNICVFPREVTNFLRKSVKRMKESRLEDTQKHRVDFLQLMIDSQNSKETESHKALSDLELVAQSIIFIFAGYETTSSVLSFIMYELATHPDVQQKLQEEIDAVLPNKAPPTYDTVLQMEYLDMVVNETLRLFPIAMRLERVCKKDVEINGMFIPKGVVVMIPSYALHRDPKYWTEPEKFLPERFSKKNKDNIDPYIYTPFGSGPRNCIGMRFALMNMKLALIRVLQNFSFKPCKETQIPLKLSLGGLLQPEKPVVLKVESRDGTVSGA
The target in a further data set is T2, Cytochrome P450 1A2 (Homo sapiens, UniProt P05177).
T2 sequence (P05177 whole entry): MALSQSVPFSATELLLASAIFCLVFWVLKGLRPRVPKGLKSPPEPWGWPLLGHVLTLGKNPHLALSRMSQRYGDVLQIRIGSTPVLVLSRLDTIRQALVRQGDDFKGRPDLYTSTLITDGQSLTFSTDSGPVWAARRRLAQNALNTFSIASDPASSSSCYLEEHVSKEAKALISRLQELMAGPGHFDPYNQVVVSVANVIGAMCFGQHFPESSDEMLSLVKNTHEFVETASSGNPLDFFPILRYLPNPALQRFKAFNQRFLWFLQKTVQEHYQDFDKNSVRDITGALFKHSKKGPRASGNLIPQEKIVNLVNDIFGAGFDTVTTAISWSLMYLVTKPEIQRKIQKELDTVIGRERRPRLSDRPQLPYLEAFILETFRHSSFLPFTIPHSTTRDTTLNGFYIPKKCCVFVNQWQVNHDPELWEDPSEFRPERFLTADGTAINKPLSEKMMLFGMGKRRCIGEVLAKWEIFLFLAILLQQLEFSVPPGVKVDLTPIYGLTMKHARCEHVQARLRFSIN
In words: Inhibition of CYP1A2 in human liver microsomes using phenacetin as substrate preincubated for 5 mins followed by NADPH addition measured after 10 mins by LC-MS/MS analysis.

Another data set has as its target Cytochrome P450 2D6 (Homo sapiens, UniProt P10635). In words: Inhibition of CYP2D6 in human liver microsomes using dextromethorphan as substrate preincubated for 5 mins followed by NADPH addition measured after 10 mins by LC-MS/MS analysis.
Another data set has as its target Cytochrome P450 2C19 (Homo sapiens, UniProt P33261). In words: Inhibition of CYP2C19 in human liver microsomes using (S)-mephenytoin as substrate preincubated for 5 mins followed by NADPH addition measured after 40 mins by LC-MS/MS analysis.
The target in the next data set is Cytochrome P450 2C9 (Homo sapiens, UniProt P11712). The data set is described as follows: Inhibition of CYP2C9 in human liver microsomes using diclofenac as substrate preincubated for 5 mins followed by NADPH addition measured after 10 mins by LC-MS/MS analysis.
Chain of Cytochrome P450 2C9 (P11712 whole entry): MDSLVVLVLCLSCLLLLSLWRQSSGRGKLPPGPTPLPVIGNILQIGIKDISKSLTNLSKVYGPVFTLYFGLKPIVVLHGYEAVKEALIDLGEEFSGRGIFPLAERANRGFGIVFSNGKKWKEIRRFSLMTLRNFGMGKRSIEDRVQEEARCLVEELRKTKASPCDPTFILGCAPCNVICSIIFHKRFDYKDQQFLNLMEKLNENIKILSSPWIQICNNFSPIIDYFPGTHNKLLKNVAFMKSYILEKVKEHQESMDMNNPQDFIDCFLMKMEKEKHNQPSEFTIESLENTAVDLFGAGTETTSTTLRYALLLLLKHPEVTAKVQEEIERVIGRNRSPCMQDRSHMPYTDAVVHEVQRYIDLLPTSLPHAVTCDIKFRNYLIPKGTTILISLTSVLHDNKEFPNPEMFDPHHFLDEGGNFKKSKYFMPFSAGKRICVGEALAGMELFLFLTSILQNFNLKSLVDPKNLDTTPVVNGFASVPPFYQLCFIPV
Data set [6] is described as follows: Solubility of the compound at pH 2.1. The conditions noted are these: buffer.
Data set [7] can be described thus: Solubility of the compound at pH 7.4. Conditions: buffer.
A short description of data set [8]: Solubility of the compound at pH 4. The conditions noted are these: buffer.

Chain of Cytochrome P450 2D6 (P10635 whole entry): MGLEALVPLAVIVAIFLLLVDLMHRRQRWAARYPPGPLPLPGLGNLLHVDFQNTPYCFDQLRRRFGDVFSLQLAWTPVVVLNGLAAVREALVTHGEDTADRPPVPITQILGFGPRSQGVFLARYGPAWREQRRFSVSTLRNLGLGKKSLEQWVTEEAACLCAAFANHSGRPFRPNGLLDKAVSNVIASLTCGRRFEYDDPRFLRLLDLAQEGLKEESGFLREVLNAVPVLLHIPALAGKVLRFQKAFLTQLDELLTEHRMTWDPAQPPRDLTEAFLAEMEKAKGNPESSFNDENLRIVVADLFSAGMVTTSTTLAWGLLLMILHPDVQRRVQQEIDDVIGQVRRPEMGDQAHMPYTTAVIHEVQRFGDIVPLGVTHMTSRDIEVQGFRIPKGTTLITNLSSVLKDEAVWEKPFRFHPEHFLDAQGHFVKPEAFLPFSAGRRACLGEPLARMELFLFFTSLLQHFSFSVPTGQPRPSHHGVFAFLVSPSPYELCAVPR
Chain of Cytochrome P450 2C19 (P33261 whole entry): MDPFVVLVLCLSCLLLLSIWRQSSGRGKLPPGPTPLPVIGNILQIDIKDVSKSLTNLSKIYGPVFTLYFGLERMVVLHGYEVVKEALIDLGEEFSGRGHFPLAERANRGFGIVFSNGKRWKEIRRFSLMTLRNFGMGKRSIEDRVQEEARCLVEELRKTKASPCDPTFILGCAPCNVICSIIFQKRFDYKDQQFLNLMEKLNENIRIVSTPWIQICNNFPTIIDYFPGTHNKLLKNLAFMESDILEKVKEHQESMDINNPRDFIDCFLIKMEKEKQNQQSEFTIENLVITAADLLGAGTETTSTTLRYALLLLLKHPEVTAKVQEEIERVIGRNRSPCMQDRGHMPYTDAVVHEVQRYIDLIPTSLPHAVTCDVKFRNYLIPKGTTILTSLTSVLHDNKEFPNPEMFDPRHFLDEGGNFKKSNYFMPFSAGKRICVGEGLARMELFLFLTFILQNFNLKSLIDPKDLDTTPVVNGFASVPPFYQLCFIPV

For `O=C(O)c1ccc(-n2cc(C(=O)c3c(Cl)cccc3Cl)c3ccc(F)cc32)cc1`, the remaining at 0.5 h, 1 µM came to 80% in data set [1], 91% in data set [2] and 61% in data set [4]. Besides, in [3], the pIC50 is 6.70.

On to `O=C(O)c1ccc(-n2cc(C(=O)c3ccccc3Cl)c3ccccc32)cc1`, for which the remaining at 0.5 h, 1 µM in [1] came out at 96%. Further, the pIC50 in data set [3] is 6.69.

Consider `O=C(O)c1ccc(-n2cc(C(=O)c3c(Cl)cccc3Cl)c3ccccc32)c(Cl)c1`, for which the remaining at 0.5 h, 1 µM was 64% in [1], 76% in [2] and 48% in [4]. The pIC50 in data set [3] is 6.91.

`O=C(O)c1ccc(-n2cc(C(=O)c3c(F)cccc3F)c3ccccc32)cc1`: the figures for the remaining at 0.5 h, 1 µM in [1], in [2] and in data set [4] were 94%, 92% and 88%, respectively. For the same molecule, the pIC50 in [3] was 6.35.

As for `O=C(O)c1ccc(-n2cc(C(=O)c3c(Cl)cccc3Cl)c3cc(F)ccc32)cc1`, the remaining at 0.5 h, 1 µM in data set [1] came out at 82%; in data set [2], 87%; in data set [4], 76%. Moreover, in data set [3], the negative logarithm of the IC50 (pIC50) is 6.60.

Consider `O=C(O)c1ccc(-n2cc(C(=O)c3c(Cl)cc(Cl)cc3Cl)c3ccccc32)cc1`, for which the remaining at 0.5 h, 1 µM in [1] is 90%. Besides, in data set [3], the pIC50 was 6.97.

With `Cc1c(C(=O)c2c(Cl)cccc2Cl)c2ccccc2n1-c1ccc(C(=O)O)cc1`, in data set [1], the remaining at 0.5 h, 1 µM was 92%. In addition, the pIC50 in data set [5] is 6.81; in [3], below 5.30.

As to `O=C(O)c1ccc(-n2cc(C(=O)c3c(Cl)cccc3Cl)c3ccccc32)c(C(F)(F)F)c1`, the values for the remaining at 0.5 h, 1 µM in data set [1], in [2] and in data set [4] were 85%, 99% and 45%, respectively. Further, the pIC50 in data set [3] was below 5.52.

Consider `Cc1cccc(Cl)c1C(=O)c1cn(-c2ccc(C(=O)O)cc2)c2cccc(F)c12`, for which the remaining at 0.5 h, 1 µM in data set [1] was determined as 80%; in data set [2] it was 77%; in data set [4], 70%. In [3], the pIC50 was 7.03.

On to `O=C(O)c1ccc(-n2cc(C(=O)c3c(Cl)cccc3Cl)c3cccc(Cl)c32)cc1`, for which the remaining at 0.5 h, 1 µM in data set [1] worked out at 76%. Further, in [3], the pIC50 was 7.15.

For the molecule `O=C(O)c1ccc(-n2cc(C(=O)c3c(Cl)cccc3C(F)(F)F)c3c(F)cccc32)cc1`, the values for the remaining at 0.5 h, 1 µM in data set [1], in data set [2] and in data set [4] were 96%, 79% and 65%, respectively. The pIC50 against Cytochrome P450 3A4 was 4.79; against Cytochrome P450 1A2, below 4.30; at Cytochrome P450 2D6, below 4.30; in data set [3], 7.42; against Cytochrome P450 2C19 it was 4.30; against Cytochrome P450 2C9, 4.65.

As for `Cc1cc(-n2cc(C(=O)c3c(Cl)cccc3Cl)c3ccccc32)ccc1C(=O)O`, the pIC50 in data set [3] was 5.70.

For `Cc1cccc(Cl)c1C(=O)c1cn(-c2ccc(C(=O)O)cc2F)c2ccccc12`, the remaining at 0.5 h, 1 µM in data set [1] stood at 84%; in [2], 59%; in data set [4], 46%. The negative logarithm of the IC50 (pIC50) in [3] is 7.68.

In the case of `O=C(O)c1ccc(-n2cc(C(=O)c3c(Cl)cccc3Cl)c3c(F)cccc32)c(F)c1`, the remaining at 0.5 h, 1 µM in data set [1] worked out at 100%; in data set [2] it was 88%; in data set [4], 44%. The pIC50 at Cytochrome P450 3A4 was 5.08; against Cytochrome P450 1A2, below 4.30; against Cytochrome P450 2D6, below 4.30; in data set [3], 7.43; at Cytochrome P450 2C19 it was below 4.30; on Cytochrome P450 2C9 it was 5.10.

In the case of `O=C(O)c1ccc(-n2cc(C(=O)c3c(Cl)cccc3Cl)c3ccccc32)c(F)c1F`, the remaining at 0.5 h, 1 µM in data set [1] came to 100%. Further, the pIC50 in [3] was 7.12.

Regarding `O=C(O)c1ccc(-n2cc(C(=O)c3c(Cl)cccc3Cl)c3ccccc32)cc1O`, the remaining at 0.5 h, 1 µM in [1] came to 77%; in data set [2] it was 68%; in data set [4], 3%. In [3], the pIC50 was 8.30.

Take `Cc1cc(C(=O)O)ccc1-n1cc(C(=O)c2c(Cl)cccc2Cl)c2ccccc21`: in [3], the negative logarithm of the IC50 (pIC50) is 6.67.

On to `Cc1cccc(Cl)c1C(=O)c1cn(-c2ccc(C(=O)O)cc2)c2c(F)cccc12`, for which the remaining at 0.5 h, 1 µM in data set [1] is 80%; in [2], 66%; in [4], 70%. Moreover, the pIC50 is 4.57 against Cytochrome P450 3A4; below 4.30 at Cytochrome P450 2D6; 7.96 in data set [3]; below 4.30 against Cytochrome P450 2C19; 4.50 against Cytochrome P450 2C9.

For the molecule `O=C([O-])c1ccc(-n2cc(C(=O)c3c(Cl)cccc3Cl)c3ccccc32)cc1.[Na+]`, the solubility is 52 µM in [6], above 2000 µM in data set [7] and 30 µM in [8].

On to `O=C(O)c1ccc(-n2cc(C(=O)c3c(Cl)cccc3Cl)c3ccccc32)cc1F`, for which the remaining at 0.5 h, 1 µM in data set [1] was 92%. Besides, the pIC50 in [3] was 6.54.

On to `O=C(O)c1ccc(-n2cc(C(=O)c3c(Cl)cccc3C(F)(F)F)c3cccnc32)cc1`, for which the remaining at 0.5 h, 1 µM in data set [1] worked out at 84%; in data set [2] it was 83%; in data set [4], 55%. The negative logarithm of the IC50 (pIC50) in data set [3] was 7.36.

As for `COc1cccc2c(C(=O)c3c(Cl)cccc3Cl)cn(-c3ccc(C(=O)O)cc3)c12`, the remaining at 0.5 h, 1 µM in data set [1] was 83%. In addition, the figures for the pIC50 in data set [5] and in data set [3] were 6.46 and 6.14, respectively.

In the case of `O=C(O)c1cc(F)c(-n2cc(C(=O)c3c(Cl)cccc3Cl)c3ccccc32)c(F)c1`, the remaining at 0.5 h, 1 µM in data set [1] is 75%; in data set [2], 94%; in data set [4], 30%. For the same molecule, the negative-log IC50 (pIC50) in [3] is 8.00.

As for `O=C(O)c1cc(Cl)c(-n2cc(C(=O)c3c(Cl)cccc3Cl)c3ccccc32)c(Cl)c1`, in data set [3], the negative-log IC50 (pIC50) was 6.30.

Turning to `O=C(O)c1ccc(-n2cc(C(=O)c3c(Cl)cccc3Cl)c3ccccc32)cc1C(F)(F)F`, the remaining at 0.5 h, 1 µM in data set [1] is 61%; in data set [2] it was 71%; in data set [4], 61%. For the same molecule, the pIC50 in data set [3] is below 6.00.

As to `Cc1cccc(Cl)c1C(=O)c1cn(-c2ccc(C(=O)O)cc2F)c2cccc(F)c12`, the remaining at 0.5 h, 1 µM in [1] was 68%; in data set [2] it was 75%; in data set [4], 43%. Also, the negative-log IC50 (pIC50) in data set [3] is 7.44.

Take `O=C(O)c1ccc(-n2cc(C(=O)c3c(Cl)cccc3Cl)c3cccc(F)c32)c(F)c1`: the results for the remaining at 0.5 h, 1 µM in data set [1], in data set [2] and in data set [4] were 72%, 65% and 73%, respectively.

As for `O=C(O)c1ccc(-n2cc(C(=O)c3c(F)cc(F)cc3Cl)c3ccccc32)cc1`, in data set [3], the negative logarithm of the IC50 (pIC50) was 6.68.

In the case of `Cc1cccc2c(C(=O)c3ccccc3Cl)cn(-c3ccc(C(=O)O)cc3F)c12`, the remaining at 0.5 h, 1 µM in data set [1] was 67%. For the same molecule, the pIC50 is 8.09 in data set [5] and 6.92 in [3].

As to `Cc1cccc(Cl)c1C(=O)c1cn(-c2ccc(C(=O)O)cc2F)c2ncccc12`, the solubility is below 1 µM in [6], 1960 µM (≈ 803 µg/mL) in data set [7] and 1 µM (≈ 0.409 µg/mL) in data set [8]. Also, the remaining at 0.5 h, 1 µM in data set [1] stood at 93%; in data set [2], 88%; in data set [4] it was 73%. Moreover, the pIC50 was below 4.30 against Cytochrome P450 3A4, below 4.30 at Cytochrome P450 1A2, 7.57 in data set [3] and below 4.30 against Cytochrome P450 2C19.
